According to patent EP4763839A1 (Pamplona Therapeutics (Shenzhen) Co., Ltd., priority 2023, dated 2025):
Where a name gives a salt, the structure may show the parent alone. Read-outs that look alike come from different tables or passages of the source.

Target: T1, IRAK4 (Homo sapiens, UniProt Q9NWZ3)
T1 sequence (Q9NWZ3 1-460): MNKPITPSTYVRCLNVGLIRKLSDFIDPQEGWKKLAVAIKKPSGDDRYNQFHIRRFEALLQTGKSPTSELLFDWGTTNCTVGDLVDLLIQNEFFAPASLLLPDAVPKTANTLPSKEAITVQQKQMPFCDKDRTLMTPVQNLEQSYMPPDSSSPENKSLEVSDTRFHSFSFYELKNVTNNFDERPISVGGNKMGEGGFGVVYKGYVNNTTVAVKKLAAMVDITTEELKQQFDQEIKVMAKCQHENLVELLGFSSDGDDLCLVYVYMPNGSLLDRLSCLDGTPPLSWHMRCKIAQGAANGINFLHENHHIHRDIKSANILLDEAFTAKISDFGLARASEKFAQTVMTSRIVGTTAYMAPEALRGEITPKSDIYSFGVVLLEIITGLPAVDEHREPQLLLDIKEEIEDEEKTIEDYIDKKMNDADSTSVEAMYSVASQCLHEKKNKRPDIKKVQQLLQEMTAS
Assay: Degradation of IRAK4 in THP1 cells, Western blot
Assay type: cell-based
Set-up: Degradation of IRAK4 in THP1 by compound; host or cells: THP-1
In short: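 Degradation rate derived from densitometry of IRAK4 bands versus DMSO-treated controls. Read-out: anti-IRAK4 immunoblot (10% gel, 40 μg total protein per lane, BCA-normalised) of lysates from THP1 cells incubated with compound for 24 h.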

[1] = THP-1 cells, 24 hours of incubation, IRAK4 protein by Western blot, read-out: DC50
[2] = maximum degradation rate, THP-1 cells, 24 hours of incubation, read-out: Dmax

Compound | DC50 [1] [nM] | Dmax [2] [%] | DC50 [nM] | Dmax (THP-1) [%]
Cn1c(=O)n(C2CCC(=O)NC2=O)c2cccc(CN3CCC(N4CCN(c5ccc(-n6cc(NC(=O)c7cccc(C(F)(F)F)n7)c(C(N)=O)n6)cc5)CC4)CC3)c21 (centres unmarked) [Compound A372] | < 100 | > 60 |  | 
NS(=O)(=O)c1nn(-c2ccc(N3CCN(CC4CCN(c5ccc(NC6CCC(=O)NC6=O)cc5F)CC4)CC3)cc2)cc1NC(=O)c1cccc(-c2ccn[nH]2)n1 (centres unmarked) [Compound A325, N-(1-(4-(4-((1-(-4-((2,6-dioxopiperidin-3-yl)amino)-2-fluorophenyl)piperidin-4-yl)methyl)piperazin-1-yl)phenyl)-3-sulfamoyl-1H-pyrazol-4-yl)-6-(1H-pyrazol-5-yl)picolinamide] | < 100 | > 60 |  | 
Cn1c(=O)n(C2CCC(=O)NC2=O)c2cccc(N3CCC(CN4CCN(C5CCC(n6cc(NC(=O)c7cccc(C(F)(F)F)n7)c(C(N)=O)n6)CC5)CC4)CC3)c21 (centres unmarked) [Compound A380] | < 100 | > 60 |  | 
Cn1c(=O)n(C2CCC(=O)NC2=O)c2cccc(NCCN3CC4CN(Cc5ccc(-n6cc(NC(=O)c7cccc(-c8ccn[nH]8)n7)c(S(N)(=O)=O)n6)cc5)CC4C3)c21 (centres unmarked) [Compound A338] | < 100 | > 60 |  | 
COc1ccc(C(=O)N2CCC(CCN3CCN(c4ccc(-n5cc(NC(=O)c6cccc(-c7ccn[nH]7)n6)c(S(N)(=O)=O)n5)cc4)CC3)CC2)cc1N1CCC(=O)NC1=O [Compound A324] | < 100 | > 60 |  | 
Cn1c(=O)n(C2CCC(=O)NC2=O)c2cccc(N3CCC(CCN4CCN(c5ccc(-n6cc(NC(=O)c7cccc(C(F)(F)F)n7)c(C(N)=O)n6)cc5)CC4)C(F)(F)C3)c21 (centres unmarked) [Compound A300] |  |  | < 100 | > 60
NC(=O)c1nn(-c2ccc(N3CCN(C(=O)N4CCC(Cc5ccc(N6CCC(=O)NC6=O)cc5)CC4)CC3)cc2)cc1NC(=O)c1cccc(C(F)(F)F)n1 [Compound A448] | 100 to 1000 | 40 to 60 |  | 
NC(=O)c1nn(-c2ccc(N3CCN(C(=O)C4CCN(c5cc(F)c(C6CCC(=O)NC6=O)c(F)c5)C4)CC3)cc2)cc1NC(=O)c1cccc(C(F)(F)F)n1 (centres unmarked) [Compound A414] | < 100 | > 60 |  | 
COc1ccc(C(=O)N2CCC(CN3CCN(c4ccc(-n5cc(NC(=O)c6cccc(-c7ccn[nH]7)n6)c(S(N)(=O)=O)n5)cc4)CC3)C2)cc1N1CCC(=O)NC1=O (centres unmarked) [Compound A329, N-(1-(4-(4-((1-(3-(2,4-dioxotetrahydropyrimidin-1(2H)-yl)-4-methoxybenzoyl)pyrrolidin-3-yl)methyl)piperazin-1-yl)phenyl)-3-sulfamoyl-1H-pyrazol-4-yl)-6-(1H-pyrazol-5-yl)picolinamide trifluoroacetate] | < 100 | > 60 |  | 
Cn1c(=O)n(C2CCC(=O)NC2=O)c2cccc(C#CCOC3CN(C(=O)c4ccc(-n5cc(NC(=O)c6cccc(-c7ccn[nH]7)n6)c(S(N)(=O)=O)n5)cc4)C3)c21 (centres unmarked) [Compound A348] | < 100 | > 60 |  | 
COc1ccc(C(=O)N2CCC(CCN3CCN(c4ccc(-n5cc(NC(=O)c6cccc(-c7ccn[nH]7)n6)c(S(N)(=O)=O)n5)cc4)CC3)C2)cc1N1CCC(=O)NC1=O (centres unmarked) [Compound A328, N-(1-(4-(4-(1-(3-(2,4-dioxotetrahydropyrimidin-1(2H)-yl)-4-methoxybenzoyl)pyrrolidin-3-ethyl)piperazin-1-yl)phenyl)-3-sulfonylamino-1H-pyrazol-4-yl)-6-(1H-pyrazol-5-yl)picolinamide trifluoroacetate] | < 100 | > 60 |  | 

Second part, led by results:

DC50 [1] [nM] | Dmax [2] [%] | Compound | DC50 [nM] | Dmax (THP-1) [%]
< 100 | > 60 | NC(=O)c1nn(-c2ccc(N3CCN(CC4CCN(c5ccc(OC6CCC(=O)NC6=O)cn5)CC4)CC3)cc2)cc1NC(=O)c1cccc(C(F)(F)F)n1 (centres unmarked) [Compound A377, N-(3-Carbamoyl-1-(4-(4-((1-(5-((2,6-dioxopiperidin-3-yl)oxy)pyridin-2-yl)piperidin-4-yl)methyl)piperazin-1-yl)phenyl)-1H-pyrazol-4-yl)-6-(trifluoromethyl)picolinamide] |  | 
< 100 | > 60 | Cn1c(=O)n(C2CCC(=O)NC2=O)c2cccc(N3CCC4(CC3)CN(CCc3ccc(-n5cc(NC(=O)c6cccc(C(F)(F)F)n6)c(C(N)=O)n5)cc3)C4)c21 (centres unmarked) [Compound A316, N-(3-carbamoyl-1-(4-(2-(7-(1-(2,6-dioxopiperidin-3-yl)-3-methyl-2-oxo-2,3-dihydro-1H-benzo[d]imidazol-4-yl)-2,7-diazaspiro[3.5]nonan-2-yl)ethyl)phenyl)-1H-pyrazol-4-yl)-6-(trifluoromethyl)picolinamide] |  | 
< 100 | > 60 | CC(C)(O)c1nn(-c2ccc(N3CCN(C4CCN(c5ccc(OC6CCC(=O)NC6=O)cn5)CC4)CC3)cc2)cc1NC(=O)c1cccc(C(F)(F)F)n1 (centres unmarked) [Compound A440, N-(1-(4-(4-(1-(5-((2,6-Dioxopiperidin-3-yl)oxy)pyridin-2-yl)piperidin-4-yl)piperazin-1-yl)phenyl)-3-(2-hydroxypropan-2-yl)-1H-pyrazol-4-yl)-6-(trifluoromethyl)picolinamide] |  | 
100 to 1000 | 40 to 60 | NC(=O)c1nn(-c2ccc(N3CCN(C4CCN(c5ccc(C(=O)NC6CCC(=O)NC6=O)cn5)CC4)CC3)cc2)cc1NC(=O)c1cccc(C(F)(F)F)n1 (centres unmarked) [Compound A433, N-(3-Carbamoyl-1-(4-(4-(1-(5-((2,6-dioxopiperidin-3-yl)carbamoyl)pyridin-2-yl)piperidin-4-yl)piperazin-1-yl)phenyl)-1H-pyrazol-4-yl)-6-(trifluoromethyl)picolinamide] |  | 
< 100 | > 60 | CC(C)(O)c1nn(-c2ccc(N3CCN(CC4CCN(c5ccc(NC6CCC(=O)NC6=O)cc5F)CC4)CC3)cc2)cc1NC(=O)c1cccc(C(F)(F)F)n1 (centres unmarked) [Compound A434, N-(1-(4-(4-((1-(4-((2,6-Dioxopiperidin-3-yl)amino)-2-fluorophenyl)piperidin-4-yl)methyl)piperazin-1-yl)phenyl)-3-(2-hydroxypropan-2-yl)-1H-pyrazol-4-yl)-6-(trifluoromethyl)picolinamide] |  | 
< 100 | > 60 | COc1ccc(C(=O)N2CCC(CCN3CCN(c4ccc(-n5cc(NC(=O)c6cccc(C(F)(F)F)n6)c(C(C)(C)O)n5)cc4)CC3)CC2)cc1N1CCC(=O)NC1=O [Compound A454, N-(1-(4-(4-(2-(1-(3-(2,4-Dioxotetrahydropyrimidin-1(2H)-yl)-4-methoxybenzoyl)piperidin-4-yl)ethyl)piperazin-1-yl)phenyl)-3-(2-hydroxypropan-2-yl)-1H-pyrazol-4-yl)-6-(trifluoromethyl)picolinamide] |  | 
> 1000 | < 40 | N#Cc1cccc(C(=O)Nc2cn(-c3ccc(N4CCN(CC5CCN(c6ccc(NC7CCC(=O)NC7=O)cc6F)CC5)CC4)cc3)nc2C(N)=O)n1 (centres unmarked) [Compound A384, N-(3-Carbamoyl-1-(4-(4-((1-(4-((2,6-dioxopiperidin-3-yl)amino)-2-fluorophenyl)piperidin-4-yl)methyl)piperazin-1-yl)phenyl)-1H-pyrazol-4-yl)-6-cyanopicolinamide] |  | 
< 100 | > 60 | NC(=O)c1cn(-c2ccc(N3CCN(C4CCN(c5ccc(NC6CCC(=O)NC6=O)cc5F)CC4)CC3)cc2)cc1NC(=O)c1cccc(C(F)(F)F)n1 (centres unmarked) [Compound A428, N-(4-Carbamoyl-1-(4-(4-(1-(4-((2,6-Dioxopiperidin-3-yl)amino)-2-fluorophenyl)piperidin-4-yl)piperazin-1-yl)phenyl)-1H-pyrrol-3-yl)-6-(trifluoromethyl)picolinamide] |  | 
< 100 | > 60 | NC(=O)c1nn(-c2ccc(N3CCN(CCC4CCN(C(=O)c5ccc(F)c(N6CCC(=O)NC6=O)c5)CC4)CC3)cc2)cc1NC(=O)c1cccc(C(F)(F)F)n1 [Compound A402, N-(3-Carbamoyl-1-(4-(4-(2-(1-(3-(2,4-dioxotetrahydropyrimidin-1(2H)-yl)-4-fluorobenzoyl)piperidin-4-yl)ethyl)piperazin-1-yl)phenyl)-1H-pyrazol-4-yl)-6-(trifluoromethyl)picolinamide trifluoroacetate] |  | 
< 100 | > 60 | NC(=O)c1nn(-c2ccc(N3CCN(C4CCC5(CC4)CN(c4ccc(N6CCC(=O)NC6=O)cc4)C5)CC3)cc2)cc1NC(=O)c1cccc(C(F)(F)F)n1 [Compound A391, N-(3-Carbamoyl-1-(4-(4-(2-(4-(2,4-dioxotetrahydropyrimidin-1(2H)-yl)phenyl)-2-azaspiro[3.5]nonan-7-yl)piperazin-1-yl)phenyl)-1H-pyrazol-4-yl)-6-(trifluoromethyl)picolinamide] |  | 
< 100 | > 60 | CC(C)(O)c1nn(-c2ccc(N3CCN(C4CCN(c5ccc(C(=O)NC6CCC(=O)NC6=O)c(F)c5)CC4)CC3)cc2)cc1NC(=O)c1cccc(C(F)(F)F)n1 (centres unmarked) [Compound A442, N-(1-(4-(4-(1-(4-((2,6-dioxopiperidin-3-yl)carbamoyl)-3-fluorophenyl)piperidin-4-yl)piperazin-1-yl)phenyl)-3-(2-hydroxypropan-2-yl)-1H-pyrazol-4-yl)-6-(trifluoromethyl)picolinamide] |  | 
